As a reminder, the melting point is the temperature of the solid-liquid transition. Regarding `COC1CC2CC(OC(=O)c3ccccc3)CCC2(C)C2CCC3(C)C(=C12)C(O)CC3C(C)CCCC(C)C` (stereo not drawn), the melting point lay in the range of 182 to 183 °C.
Then `Cc1cc(-c2nc3cccnn3c2-c2ccnc(NC(=O)c3cnccn3)c2)ccc1F`, with 229 to 230 °C; and `NC(c1ccccc1)c1ccc(C(N)c2ccc(C(N)c3ccccc3)cc2)cc1` (stereo not drawn), with 182 to 185 °C; and `Clc1ccc(CN2CC=C(/C=C/c3ccccc3)CC2)cc1Cl`, with 123 to 125 °C.
Then `CC(C)c1ccccc1-n1c(=O)[nH]c2c(C(N)=O)nc(-c3ccc(-c4nc[nH]n4)cc3)nc21`, with 368 °C.
Then `CN(C)C(=O)c1c(-c2ccccc2F)ccc2ccccc12`, with 105 to 106 °C; and `CCCC[C@@]1(O)CCC[C@@]2(C)CC[C@@H]3C[C@@]21OC3(C)C`, with 90 to 92 °C; and `CCc1cccc(CC)c1NC(=O)C(C)Br` (stereo not drawn), with 197 to 199 °C.
For the compound `CCN(CC)CCNC(=O)c1cccc2c(=O)cc(-c3ccc([N+](=O)[O-])cc3)oc12`, the melting point was 207 to 209 °C.
Compound `CC1(N)CCN(c2ncc3ncnc(Nc4ccc(F)c(Cl)c4)c3n2)CC1` registered a melting point of 188 to 190 °C.
With `CN(C(=O)c1ccc2c(c1)nc(NC(=O)c1cccs1)n2CCCC(N)=O)C1CCCCC1` the figure was 112 to 115 °C.
Then `N#Cc1ccc(F)cc1-c1ccc(F)cc1`, with 111 to 113 °C; and `CCOc1ccc(C2=NN(C3CCOCC3)C(=O)[C@H]3CC=CC[C@@H]23)cc1OCC` (relative stereo), with 127 to 129 °C; and `CN(C)C(=O)Cn1c(-c2ccc(Br)cc2)nc2cccnc21`, with 224 to 225 °C.
Compound `O=C1NC(=O)c2c1c(-c1ccccc1)cc1c2c2cc(O)ccc2n1CCCn1ccnc1` returned a melting point of 309 to 311 °C.
`CC(C)(C)c1cc(C2NC(=O)NC2c2ccccc2)cc(C(C)(C)C)c1O` (stereo not drawn) came in with a melting point of over 300 °C.
With `CCCCc1nn(-c2cc(N)ccc2Cl)c(=O)n1Cc1ccc(-c2ccccc2S(=O)(=O)NC(=O)c2ccccc2Cl)cc1` the figure was 155 to 157 °C; with `CC(Nc1c(-c2ccc(C#N)cc2)c(=O)c1=O)C(C)(C)C` (stereo not drawn), 192 to 194 °C; with `COc1cc(N(C)C)nc(NC(=O)NS(=O)(=O)c2ccccc2CCC(F)(F)F)n1`, 183 to 184 °C.
As for `C#Cc1cccc(Nc2ncnc3[nH]cc(-c4ccc(C)cc4)c23)c1`, the melting point is 245 to 247 °C.
In turn, `COC(=O)c1sc(C)c(C#N)c1N` had a melting point of 209 to 210 °C.
Then `O=Cc1cnc(Nc2n[nH]c3ccc(-c4ncccc4Cl)cc23)s1`, with 223 to 224 °C.
Then `Cc1cc(F)ccc1-c1nc(NCC(F)(F)F)nc2c1ccc(=O)n2-c1c(F)cccc1F`, with 195 to 196 °C.
With `O=S(=O)(Nc1ccc2c(OCc3nc(-c4ccc(F)cc4)sc3Br)cccc2c1)C(F)(F)F` the figure was 139 to 140 °C; with `COC(=O)c1cc(C(C)Br)cnc1C1=NC(C)(C(C)C)C(=O)N1` (stereo not drawn), 123 to 126 °C.
In turn, `CC(C)Cn1c(CN)nc2c(N)nc3ccccc3c21` returned a melting point of 287 to 291 °C.
`O=c1[nH]c2ccc(Cl)cc2c(=O)n1N1CCOCC1` had a melting point of 335 °C.
Then `CCC1(CC)OC(=O)c2cc([N+](=O)[O-])ccc21`, with 98.5 to 100 °C; and `COc1ccc(S(=O)(=O)C(Cc2cccnc2)(CC(C)C)C(=O)NO)cc1` (stereo not drawn), with 78 °C.
Then `CC(=O)N1CCN(c2ccc(F)cc2O)CC1`, with 183 to 185 °C.
With `CNc1c([N+](=O)[O-])cc(C(C)(C)C)cc1[N+](=O)[O-]` the figure was 129 to 130 °C; with `O=c1c2cccnc2sc(=Nc2ccccc2)n1Cc1ccccc1`, 105 to 106 °C; with `O=C1O[C@@H](c2ccc(F)cc2)[C@@H](Cc2ccc(C(F)(F)F)cc2)N1Cc1cccc2ccccc12` (racemic), 136 to 137 °C.

Source of the values: a melting point compilation (Tetko et al.; mined from patent text by program, amines drawn as free bases though some values may be those of a salt).
